# Results: PMC10540216, “Activity Guided Azide-methyllysine Photo-trapping for Substrate Profiling of Lysine Demethylases” (Journal of the American Chemical Society, 2023)
# “Also recorded” adds a separate entry of the source. Where no end group is shown, it is not given here. [ ]: non-standard residue; d: D form. Lys(Me3) = C[N+](C)(C)CCCC[C@H](N)C(=O)O
# Legend:
# [1] = system: DOT1L; assay: Methylation of eIF4A3-K374 peptides by KMT (MALDI-TOF MS); type: biochemical; conditions: 20 µM KMT, 10 µM peptide, 200 µM SAM
# Experimental: (§1) expression constructs in pET28a or pET 28-MHL were obtained from Addgene: CAMKMT […]
# (§2) (Addgene #60091) and METTL21C (Addgene #60100). Plasmids were transformed into E. Coli BL21 (DE3) competent cells (Invitrogen) using appropriate resistant antibiotic. A single colony was picked up and grown overnight at 37 °C in 10 mL of Luria-Bertani (LB) broth in the presence of 50 μg/mL kanamycin and 35 μg/mL chloramphenicol. The culture was diluted 100-fold and allowed to grow at 37 °C to an optical density (OD600) of a minimum of 0.8, and protein expression was induced overnight at 17 °C with 0.5 to 1.0 mM IPTG in an Innova 44® Incubator shaker (New Brunswick Scientific). Proteins were purified as follows: harvested cells were resuspended in 15 mL lysis buffer (50 mM Tris-HCl pH 8.0, 200 mM NaCl, 5 mM β-mercaptoethanol, 10% glycerol, 25 mM imidazole, Lysozyme, DNase, and Roche protease inhibitor cocktail). The cells were lysed by pulsed sonication (Qsonica-Q700), and centrifuged at 13,000 rpm for 40 min at 4°C. The soluble extracts were subject to Ni-NTA agarose resin (Thermo) according to manufacturer’s instructions. After passing 20 volumes of washing buffer (50 mM Tris-HCl pH 8.0, 200 mM NaCl, 5 mM β-mercaptoethanol, 10% glycerol, and 25 mM imidazole), proteins were eluted with a buffer containing 50 mM Tris-HCl pH 8.0, 200 mM NaCl, 5 mM β-mercaptoethanol, 10% glycerol, and 400 mM imidazole. Proteins were further purified by size exclusion chromatography (Superdex-200) using AKTA pure FPLC system (GE healthcare) with buffer containing 50 mM Tris-HCl pH 8.0, 200 mM NaCl, and 10% glycerol. Purified proteins were concentrated using Pierce™ Protein Concentrator PES, 10K MWCO, 5-20 mL (Thermo Scientific™ 88527). The protein concentration was determined using Bradford assay kit (BioRad Laboratories) with BSA as a standard. The concentrated proteins were stored at -80 °C before use. […]
# (§3) 16. Methylation activity of wild type KMTs on eIF4A3-K374me0/1/2 peptides 20 µM lysine methyltransferase, 10 µM eIF4A3-me0/1/2 peptide and 200 µM SAM were incubated at room temperature for 1-2 hours in 50 mM Tris pH 8.0. Reaction was stopped by storing the microcentrifuge tubes on ice. After mixing, 0.8 µL of sample and 0.8 µL of α-cyano-4-hydroxycinnamic acid (CHCA) (dissolved in 50:50 0.1% TFA and acetonitrile) were combined on a MALDI plate. Samples were ionized using reflectron positive mode on Bruker Daltonics UltrafleXtreme MALDI TOF with detection carried out from 700-3500 m/z. Bruker Flex Analysis software was used to analyze the MALDI-TOF MS spectra.
# (§4) 17. Isothermal Titration Calorimetry […]
# (§5) The microsyringe (40µL) was loaded with 1.1 mM peptide and injected into the cell (200µL), occupied by CBX1 chromodomain at a concentration of 110 µM. […]
# [2] = system: METTL21C; assay: as above; type: biochemical; conditions: 20 µM KMT, 10 µM peptide, 200 µM SAM
# Experimental: as §1, §2, §3, §4, §5
# [3] = system: METTL20; assay: as above; type: biochemical; conditions: 20 µM KMT, 10 µM peptide, 200 µM SAM
# Experimental: as §1, §2, §3, §4, §5
# [4] = system: METTL21A; assay: as above; type: biochemical; conditions: 20 µM KMT, 10 µM peptide, 200 µM SAM
# Experimental: as §1, §2, §3, §4, §5
# [5] = biological target: T1, CBX1 chromodomain (Homo sapiens, UniProt P83916); assay: Isothermal titration calorimetry of peptide binding to CBX1 chromodomain; conditions: ITC, 25 °C, 1.1 mM peptide into 110 µM CBX1 chromodomain, 50mM Tris pH 8.0
# T1 construct: occupied by CBX1 chromodomain at a concentration of 110 µM; 6xHis (N); made in house
# T1 sequence (P83916 21-79 limits assumed): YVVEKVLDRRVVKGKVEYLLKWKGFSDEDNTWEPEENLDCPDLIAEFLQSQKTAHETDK
# Experimental: (§6) 7. Expression and purification of lysine methyltransferases and Chromodomains […]
# 17. Isothermal Titration Calorimetry
# Isothermal titration calorimetry (ITC) was performed with an ITC200 instrument (MicroCal, Malvern). Experiments were conducted at 25 °C while stirring at 750 rpm. Buffers of protein […]
# were matched to 200mM NaCl, 10% glycerol, and 50mM Tris pH 8.0. Each titration was performed as follows: one initial injection of 0.4 µL for 0.8 seconds, followed by 19 injections of 2.0 µL for 4 seconds, with ≥2 mins between each injection. The initial injection was discarded prior to data analysis. The microsyringe (40µL) was loaded with 1.1 mM peptide and injected into the cell (200µL), occupied by CBX1 chromodomain at a concentration of 110 µM. Data was fitted to a single binding site model using Microcal ITC200 Software with Origin Lab 7.
# (§7) KDM4A mammalian expression plasmid in CMV vector was purchased from Addgene (plasmid #24180). Full-length G9a in pCDNA3 vector was kind from Prof. Minkui Luo at the Memorial Sloan-Kettering Cancer Center. HEK293T/17 cells (ATCC) were grown in a T25 containing Delbucco’s Modified Eagle Medium (DMEM) (Corning) with 10% FBS at 37 °C, 5% CO2, and 95% relative humidity. When cells reached 80% confluency, 5 µg of plasmid and 10 µg
# [6] = biological target: T1, CBX1 chromodomain; assay: as above; conditions: ITC, T 288.15 K in Table S6
# [7] = system: SUV39H2; assay: Methylation of eIF4A3-K374 peptides by KMT (MALDI-TOF MS); type: biochemical; conditions: 20 µM KMT, 10 µM peptide, 200 µM SAM
# Experimental: as §6, §3, §4
# (§8) The microsyringe (40µL) was loaded with 1.1 mM peptide and injected into the cell (200µL), occupied by CBX1 chromodomain at a concentration of 110 µM. Data was fitted to a single binding site model using Microcal ITC200 Software with Origin Lab 7.
# as §7
# [8] = system: G9a; assay: as above; type: biochemical; conditions: 20 µM KMT, 10 µM peptide, 200 µM SAM
# Experimental: as §6, §3, §4, §8, §7
# [9] = system: KDM4E; assay: Demethylase activity of wild type KDM4E on peptide substrates (MALDI-TOF MS); type: biochemical; conditions: 10 µM enzyme, 10 µM peptide, 1 mM 2OG, 50 mM Tris pH 8, 37°C, three hours
# Experimental: 200 FPLC column. The proteins were concentrated via centrifugation. Protein concentration was determined using Bradford assay.
# The N-terminal 6xHis-tagged KDM4E construct for bacterial expression was purchased from Addgene (#38990) and expressed following reported method.8 The wild type KDM4E plasmid was transformed into E. Coli BL21 (DE3) competent cells (Invitrogen) using pNIC28-Bsa4 kanamycin-resistant vector. A single colony was grown overnight at 37 °C in 10 mL of Luria-Bertani (LB) broth in the presence of 50 μg/mL kanamycin and 35 μg/mL chloramphenicol. The culture was diluted 100-fold and allowed to grow at 37 °C to an optical density (OD600) of 0.8, and protein expression was induced overnight at 17 °C with 1 mM IPTG in an Innova 44® Incubator shaker (New Brunswick Scientific). KDM4E was purified from pelleted cells by resuspending in lysis buffer (50 mM Tris-HCl pH 8.0, 200 mM NaCl, 5 mM β-ME, 10% glycerol, 25 mM imidazole, lysozyme, DNase, and Pierce protease inhibitor cocktail). The cells were lysed by sonication at 60 mA, 10 seconds on followed by 10 seconds off, for a total of 2 minutes. The cell debris was pelleted at 13,000 rpm for 40 minutes. The soluble cell extracts were incubated with Ni-NTA agarose resin (Thermo) according to manufactures protocol. […] Bradford Dye (BioRad) was used to quantify the protein concentration using BSA as a standard. […]
binding to CBX1 chromodomain (in words) [5],TΔS [6],ΔG [6],ΔH [6],ΔS [6],demethylation by KDM4E [9],Substance,methylation by DOT1L (in words) [1],methylation by METTL21C (in words) [2],methylation by METTL20 (in words) [3],methylation by METTL21A (in words) [4],methylation by SUV39H2 (in words) [7],methylation by G9a (in words) [8]
no detectable interaction,0 kcal/mol,0 kcal/mol,0 kcal/mol,0 cal/mol/degree,–,"GRSGRYGRKGVAINFVK [compound 21, eIF4A3-K374me0 peptide]",failed to methylate,failed to methylate,failed to methylate,failed to methylate,also methylated eIF4A3-K374me0; also recorded: monomethylated,also methylated eIF4A3-K374me0; also recorded: di- and trimethylation
–,–,–,–,–,marginally demethylated only by KDM4E,"NTKRESGR[Lys(Me3)]VQSGNINA [compound 15, TCPG-K21me3 peptide]",–,–,–,–,–,–
